This passage reports MIC results from ChEMBL document CHEMBL4373724, “An overview of recent progress in siderophore-antibiotic conjugates” (2019).

What all share (type): functional
In one assay the test system is Enterococcus faecium. The assay can be described thus: Antimicrobial activity against Enterococcus faecium NCTC after 18 hrs by CLSI protocol based broth microdilution method. A general note: Dilution methods test growth across graded concentrations, often in twofold steps.
Assay [1] has as its system Staphylococcus aureus. The assay can be described thus: Antimicrobial activity against Staphylococcus aureus SG 511 after 18 hrs by CLSI protocol based broth microdilution method. The settings on record: SG 511, 18 h.
The next assay relates to Klebsiella pneumoniae. Put plainly: Antimicrobial activity against Klebsiella pneumoniae 700603 after 18 hrs by CLSI protocol based broth microdilution method. The following applies: Klebsiella pneumoniae, 700603, 18 h.
A further assay concerns Acinetobacter baumannii. The assay can be described thus: Antimicrobial activity against Acinetobacter baumannii ATCC 17961 after 18 hrs by CLSI protocol based broth microdilution method. The settings on record: ATCC 17961, 18 h.
Assay [2] has as its system Pseudomonas aeruginosa. The assay can be described thus: Antimicrobial activity against Pseudomonas aeruginosa ATCC 27853 after 18 hrs by CLSI protocol based broth microdilution method. The settings on record: ATCC 27853, 18 h.
In the next assay the test system is Klebsiella aerogenes. Put plainly: Antimicrobial activity against Enterobacter aerogenes ATCC 35029 after 18 hrs by CLSI protocol based broth microdilution method. The settings on record: ATCC 35029, 18 h.
The subject of assay [3] is Escherichia coli. Put plainly: Antimicrobial activity against Escherichia coli ATCC 25922 after 18 hrs by CLSI protocol based broth microdilution method. The following applies: ATCC 25922, 18 h.
The test system of assay [4] is Escherichia coli. The assay can be described thus: Antimicrobial activity against Escherichia coli X580 under iron-sufficient condition by broth microdilution method.
In assay [5] the test system is Escherichia coli. The assay can be described thus: Antimicrobial activity against Escherichia coli X580 under iron-deficient condition by broth microdilution method.
The test system of assay [6] is Escherichia coli. The assay can be described thus: Antimicrobial activity against Escherichia coli EC14 under iron-sufficient condition by broth microdilution method.
Assay [7] has as its system Escherichia coli. Put plainly: Antimicrobial activity against Escherichia coli EC14 under iron-deficient condition by broth microdilution method.
For assay [8], the system named is Pseudomonas aeruginosa. Put plainly: Antimicrobial activity against Pseudomonas aeruginosa X620 under iron-sufficient condition by broth microdilution method.
Assay [9] relates to Pseudomonas aeruginosa. The assay can be described thus: Antimicrobial activity against Pseudomonas aeruginosa X620 under iron-deficient condition by broth microdilution method.
Assay [10] relates to Pseudomonas aeruginosa. The assay can be described thus: Antimicrobial activity against Pseudomonas aeruginosa X621 under iron-sufficient condition by broth microdilution method.
For assay [11], the system named is Pseudomonas aeruginosa. Put plainly: Antimicrobial activity against Pseudomonas aeruginosa X621 under iron-deficient condition by broth microdilution method.
Assay [12] relates to Staphylococcus aureus. Put plainly: Antimicrobial activity against Staphylococcus aureus X1.1 under iron-sufficient condition by broth microdilution method.
For assay [13], the system named is Staphylococcus aureus. Put plainly: Antimicrobial activity against Staphylococcus aureus X1.1 under iron-deficient condition by broth microdilution method.
Assay [14] deals with Micrococcus luteus. The assay can be described thus: Antimicrobial activity against Micrococcus luteus under iron-sufficient condition by broth microdilution method.
Assay [15] deals with Micrococcus luteus. The assay can be described thus: Antimicrobial activity against Micrococcus luteus under iron-deficient condition by broth microdilution method.

Values after ≈ are worked out from the molar mass of the structure shown.

One may read the MIC as the lowest concentration that inhibits growth of the organism. Higher therefore signals a less susceptible organism. In the case of `O=C(O)c1cn(C2CC2)c2cc(N3CCN(C(=O)CCC(=O)N(O)CCCCCO)CC3)c(F)cc2c1=O`, the MIC against Enterococcus faecium is above 128 µM; against Staphylococcus aureus [1], 32 µM (≈ 17 µg/mL); against Klebsiella pneumoniae, 16 µM (≈ 8.52 µg/mL); against Acinetobacter baumannii, 16 µM (≈ 8.52 µg/mL); in the assay on Pseudomonas aeruginosa [2], 128 µM (≈ 68.2 µg/mL); in the assay on Klebsiella aerogenes, 4 µM (≈ 2.13 µg/mL). In addition, in the assay on Escherichia coli [3], the MIC was 2 µM (≈ 1.07 µg/mL).
On to `O=C(CCC(=O)N(O)CCCCCO)NCCCCCN(O)C(=O)CCC(=O)N1CCN(c2cc3c(cc2F)c(=O)c(C(=O)O)cn3C2CC2)CC1`, for which the MIC was above 128 µM in the assay on Enterococcus faecium; 64 µM (≈ 46.9 µg/mL) against Staphylococcus aureus [1]; 128 µM (≈ 93.8 µg/mL) against Klebsiella pneumoniae; 64 µM (≈ 46.9 µg/mL) with Acinetobacter baumannii; 64 µM (≈ 46.9 µg/mL) against Pseudomonas aeruginosa [2]; 4 µM (≈ 2.93 µg/mL) in the assay with Klebsiella aerogenes. The same compound came in with an MIC with Escherichia coli [3] of 2 µM (≈ 1.47 µg/mL).
As for `O=C(CCC(=O)N(O)CCCCCO)NCCCCCN(O)C(=O)CCC(=O)NCCCCCN(O)C(=O)CCC(=O)N[C@@H](C(=O)N[C@@H]1C(=O)N2C(C(=O)O)=C(Cl)CC[C@H]12)c1ccccc1`, the MIC against Enterococcus faecium was above 128 µM; in the assay with Staphylococcus aureus [1], 64 µM (≈ 60.9 µg/mL); in the assay with Klebsiella pneumoniae it was above 128 µM; in the assay with Acinetobacter baumannii, 64 µM (≈ 60.9 µg/mL); with Pseudomonas aeruginosa [2], above 128 µM; against Klebsiella aerogenes, above 128 µM. Further, the lowest concentration to inhibit growth in the assay on Escherichia coli [3] (MIC) was 128 µM (≈ 122 µg/mL).
As to `CN[C@H](CC(C)C)C(=O)N[C@H]1C(=O)N[C@@H](CC(N)=O)C(=O)N[C@H]2C(=O)N[C@H]3C(=O)N[C@H](C(=O)N[C@H](C(=O)O)c4cc(O)cc(O)c4-c4cc3ccc4O)[C@H](O)c3ccc(c(Cl)c3)Oc3cc2cc(c3O[C@@H]2O[C@H](CO)[C@@H](O)[C@H](O)[C@H]2O[C@H]2C[C@](C)(NC(=O)CCC(=O)N(CCCCNC(=O)c3cccc(O)c3O)CCCNC(=O)c3cccc(O)c3O)[C@H](O)[C@H](C)O2)Oc2ccc(cc2Cl)[C@H]1O`, the MIC in the assay on Escherichia coli [4] was above 128 µM; in the assay on Escherichia coli [5], 128 µM (≈ 249 µg/mL); in the assay on Escherichia coli [6], above 128 µM; against Escherichia coli [7], above 128 µM; in the assay on Pseudomonas aeruginosa [8] it was above 128 µM; in the assay with Pseudomonas aeruginosa [9], above 128 µM. In addition, the MIC is above 128 µM with Pseudomonas aeruginosa [10]; 32 µM (≈ 62.4 µg/mL) with Pseudomonas aeruginosa [11]; 32 µM (≈ 62.4 µg/mL) against Staphylococcus aureus [12]; 32 µM (≈ 62.4 µg/mL) against Staphylococcus aureus [13]; 16 µM (≈ 31.2 µg/mL) in the assay with Micrococcus luteus [14]; 32 µM (≈ 62.4 µg/mL) in the assay on Micrococcus luteus [15].
Consider `O=C(CCC(=O)N(O)CCCCCO)N[C@@H](C(=O)N[C@@H]1C(=O)N2C(C(=O)O)=C(Cl)CC[C@H]12)c1ccccc1`, for which the minimum inhibitory concentration (MIC) with Enterococcus faecium was above 128 µM; in the assay with Staphylococcus aureus [1], 16 µM (≈ 8.82 µg/mL); with Klebsiella pneumoniae, above 128 µM; with Acinetobacter baumannii it was at least 128 µM; against Pseudomonas aeruginosa [2], above 128 µM; in the assay on Klebsiella aerogenes it was above 128 µM. Besides, in the assay with Escherichia coli [3], the MIC was above 128 µM.
Regarding `O=C(CCC(=O)N(O)CCCCCO)NCCCCCN(O)C(=O)CCC(=O)N[C@@H](C(=O)N[C@@H]1C(=O)N2C(C(=O)O)=C(Cl)CC[C@H]12)c1ccccc1`, the MIC with Enterococcus faecium is above 128 µM; in the assay with Staphylococcus aureus [1], 64 µM (≈ 48.1 µg/mL); against Klebsiella pneumoniae it was above 128 µM; in the assay on Acinetobacter baumannii, 32 µM (≈ 24 µg/mL); in the assay with Pseudomonas aeruginosa [2] it was above 128 µM; against Klebsiella aerogenes it was above 128 µM. In the assay on Escherichia coli [3], this compound came in with an MIC of at least 128 µM.
